Laboratory results as given in paper PMC7143261 (Foods, 2020).

Legend:
[1] = Plasmatic serotonin after treatment (ELISA); format: in vivo, Sprague Dawley rats; settings: 90 min after oral 50 µg melatonin/kg
[2] = Pharmacokinetic study of plasma melatonin after single oral dose of lentil sprouts extract
From the text: (§2) The area under the curve (AUC) is the integral of the plasma concentration of an altered drug against an interval of definite time. Pharmacokinetic parameters including plasma elimination rate constant (Ke), elimination half-life (t1/2), time to reach measured maximum plasma concentration (Tmax), measured maximum plasma concentration (Cmax), area under the plasma concentration-time curve from the time zero to the time of last quantifiable concentration (AUC0–t), area under the plasma concentration-time curve from time zero to infinity (AUC0–∞), area under the plasma (first) moment concentration-time curve from time zero to infinity (AUMC0–∞), mean residence time (MRT), volume of distribution (VD/F), and clearance (Cl/F) were determined by noncompartmental methods.

[3] = Plasmatic antioxidant capacity by FRAP after treatment; format: in vivo, Sprague Dawley rats; settings: 90 min after oral 50 µg melatonin/kg
Procedure: (§1) Phytochemicals and metabolites were isolated using SPE.
The plasma samples were also used to assess the reducing antioxidant potential using the FRAP assay, as previously described. Briefly, 300 μL of a working FRAP reagent [acetate buffer 0.3 M pH 3.6, 10 mM TPTZ in 40 mM HCl and 20 mM FeCl3·6H2O (10:1:1) (v/v/v)] were tempered to 37 °C, and then 10 μL of plasma samples were added. The absorbance was taken at 593 nm against reagent blank after 10 min. FRAP values were calculated and reported as µM Trolox equivalents (µM TE).

[4] = cited from earlier work
[5] = Plasmatic antioxidant capacity by ORAC after treatment; format: in vivo, Sprague Dawley rats; settings: 90 min after oral 50 µg synthetic melatonin/kg
Procedure: as §1
The above plasma samples were used to determine the radical scavenging activity via the ORAC method using fluorescein as a fluorescence probe. The assay was performed at 37 °C in 75 mM phosphate buffer (pH 7.4). The reaction mixture (200 μL) contained fluorescein (70 nM), 2,2-azobis (2-methyl-propionamidine)-dihydrochloride (12 mM), and samples (Trolox or samples). Fluorescence was read at 485/520 nm, excitation/emission, respectively. Black 96-well untreated microplates (PS Balck, Porvair, Leatherhead, UK) were used. The fluorescence signal was measured every minute for 80 min after automatic shaking. All reaction mixtures were prepared in triplicate, running them at least three times independently. Fluorescence was normalized to the oxidation control (phosphate buffer) and stability control (no antioxidant). The ORAC values were expressed as mM Trolox equivalents (mM TE) according to the protocol previously described.

in vivo = settings: Sprague Dawley, rat, plasma, po, 50 ug/kg
From the text: as §2

[6] = Plasma total phenolic compounds (Folin-Ciocalteu) after treatment; format: in vivo, Sprague Dawley rats; settings: 90 min posttreatment, 50 µg melatonin/kg
Procedure: as §1
Samples (10 μL) were added to 150 μL of Folin-Ciocalteu reagent (diluted 1:15, v/v in Milli-Q water). After exactly 3 min, 20% Na2CO3 (50 μL) was added to each well. After 120 min at room temperature, the absorbance of the blue complex was measured at 760 nm using a microplate reader. The concentration of total phenolic compounds was expressed as mg GAE/mL.

[7] = Bioavailability study: plasmatic melatonin 90 min after treatment (ELISA); settings: 90 min after oral 50 µg synthetic melatonin/kg
Procedure: Each of the four groups (10 rats) was administered the treatment and sacrificed on a different day. […] The administration was performed through a gavage using a suitable intubation cannula. After that, the rats were individually caged, and a cling film was placed below the cage to obtain the urine samples. After 90 min of extract administration, all rat groups were anesthetized by CO2. Urine was collected from the cling film with a pipette and transferred to a vial. […] The blood was collected by cardiac puncture, transferred to vials containing 5% heparin, and centrifuged at 4 °C for 15 min at 2100 g. […] Phytochemicals and metabolites were isolated using SPE. First, plasma and urine samples were centrifuged at 15000 g for 4 min at 4 °C. Then, samples were filtered using C18 SPE cartridges (Waters, Cerdanyola del Vallès, Spain). Finally, the eluted obtained fractions were evaporated to dryness (Speed Vac SC 200, Savant Instruments, Farmingdale, NY, USA) and reconstituted before being assayed.

[8] = Sprague Dawley, rat, plasma, po, 50 ug/kg
[9] = oral lentil sprouts, 50 µg melatonin/kg

COc1ccc2[nH]cc(CCNC(C)=O)c2c1 [melatonin, N-acetyl-5-methoxytryptamine]
enhancement of plasmatic serotonin concentration in contrast to the Fasting group [1]: 2.7 fold | half-life ([2]; Sprague Dawley, rat, in vivo, po, 50 ug/kg): 1.82 ± 0.217 h | CL/F [2, 8]: 330 L/h/kg | half-life [2, 8]: ~1.67 h | k el [2, 8]: 0.000108 s⁻¹ | MRT inf ([2]; Sprague Dawley, rat, plasma, po, 50 ug/kg, MRT 0-∞, oral lentil sprouts, 50 µg melatonin/kg): ~3.33 h | time of maximum plasma melatonin concentration postadministration ([2]; oral lentil sprouts extract, 50 µg melatonin/kg): 1.5 h | AUC 0-t /dose [2, 9]: 131.2 ± 19.3 (pg/mL min)/(μg/kg) | AUC 0-∞ [2, 9]: 9381 ± 2008 pg·min/mL | AUMC 0-∞ [2, 9]: 1897356 ± 589030 pg/mL min^2 | Cl/F [2, 9]: 0.33 ± 0.07 (μg/kg)/(pg/mL)/h | MRT 0-∞ [2, 9]: 3.323 ± 0.33 h | VD/F [2, 9]: 0.85 ± 0.08 (μg/kg)/(pg/mL) | volume of distribution (VD/F) [2, 9]: 0.85 L/g | AUC 0-t ([2]; oral lentil sprouts, 50 µg melatonin/kg, 0-240 min): 6560 ± 963 pg·min/mL | increase of plasmatic antioxidant capacity (FRAP) [3]: 4% | time of absorption in the gastrointestinal tract post-oral administration [4]: 45 min | increment of plasmatic antioxidant capacity (ORAC) vs the fasting group [5]: 32% | Cmax (in vivo): 0.0454 ± 0.0035 ng/mL | Tmax (in vivo): 1.5 h | change of TPC concentration in plasma [6]: nonsignificant | plasmatic melatonin concentration lower than that of the Lentil Sprouts group [7]: 22%
